Assay results as given in ChEMBL document CHEMBL4118158, “Lactones from the pericarps of Litsea japonica and their anti-inflammatory activities” (Bioorg Med Chem Lett, 2018).
Activity calls are given as the source filed them. No cut-off for these calls is given here.

Tests used:
[1] = system: RAW264.7; assay: Cytotoxicity against mouse RAW264.7 cells at 30 uM after 24 hrs in absence of LPS by MTT assay; type: cell-based; details: raw264.7, 24 h
[2] = system: RAW264.7; assay: Anti-inflammatory activity in mouse RAW264.7 cells assessed as reduction in COX2 protein expression at 30 uM preincubated for 30 mins before LPS stimulation for 24 hrs by Western blot analysis; type: functional, cell-based
[3] = system: RAW264.7; assay: Anti-inflammatory activity in mouse RAW264.7 cells assessed as reduction in iNOS protein expression preincubated for 30 mins before LPS stimulation for 24 hrs by Western blot analysis; type: functional, cell-based
[4] = system: RAW264.7; assay: Cytotoxicity against mouse RAW264.7 cells at 30 uM after 24 hrs in presence of LPS by MTT assay; type: cell-based; details: raw264.7, 24 h
[5] = system: RAW264.7; assay: Anti-inflammatory activity in mouse RAW264.7 cells assessed as inhibition of LPS-induced nitric oxide production after 24 hrs by Griess method; type: functional, cell-based; details: RAW264.7, 24 h
[6] = system: RAW264.7; assay: Anti-inflammatory activity in mouse RAW264.7 cells assessed as reduction in LPS-induced COX2 mRNA expression preincubated for 30 mins followed by LPS stimulation measured after 8 hrs by real-time qPCR method; type: functional, cell-based
[7] = system: RAW264.7; assay: Anti-inflammatory activity in mouse RAW264.7 cells assessed as reduction in LPS-induced iNOS mRNA expression preincubated for 30 mins followed by LPS stimulation measured after 8 hrs by real-time qPCR method; type: functional, cell-based
[8] = system: RAW264.7; assay: Anti-inflammatory activity in mouse RAW264.7 cells assessed as reduction in LPS-induced TNFalpha mRNA expression preincubated for 30 mins followed by LPS stimulation measured after 8 hrs by real-time qPCR method; type: functional, cell-based
[9] = system: RAW264.7; assay: Anti-inflammatory activity in mouse RAW264.7 cells assessed as reduction in LPS-induced IL6 mRNA expression preincubated for 30 mins followed by LPS stimulation measured after 8 hrs by real-time qPCR method; type: functional, cell-based

Row | Structure (SMILES) | Activity [1] | Activity [2] | Activity [3] | Activity [4] | IC50 [5] | Activity [6] | Activity [7] | Activity [8] | Activity [9]
1 | CCCCC/C=C\C/C=C\CCCCC/C=C1/C(=O)O[C@H](C)[C@H]1O | Non-Toxic | Active | Dose-dependent effect | Non-Toxic | 4.4 µM | – | – | – | –
2 | C=CCCCCCCCC/C=C/[C@H]1C(=O)O[C@@H](C)[C@H]1O | Non-Toxic | – | – | Non-Toxic | > 30 µM | – | – | – | –
3 | CCCCCCCCCCCC/C=C/C1=CC(C)OC1=O (centres undefined) | Non-Toxic | – | – | Non-Toxic | > 30 µM | – | – | – | –
4 | CCCCC/C=C/C/C=C/CCCC/C=C/C1=CC(C)OC1=O (centres undefined) | Non-Toxic | – | – | Non-Toxic | > 30 µM | – | – | – | –
5 | C=CCCCCCCCCC/C=C1\C(=O)O[C@H](C)[C@H]1O | Non-Toxic | – | Dose-dependent effect | Non-Toxic | 4.5 µM | – | – | – | –
6 | CCCCCCCCCCC/C=C1/C(=O)O[C@H](C)[C@H]1O | Non-Toxic | – | – | Non-Toxic | 2.9 µM | – | – | – | –
7 | CC/C=C/CCCCCCCCC/C=C1/C(=O)O[C@H](C)[C@H]1O | Non-Toxic | – | – | Non-Toxic | 2.5 µM | – | – | – | –
8 | CC1=C(O)C(=O)C=C2C1=CC=C1[C@@]2(C)CC[C@@]2(C)[C@@H]3C[C@](C)(C(=O)O)CC[C@]3(C)CC[C@]12C [CELASTROL] | – | – | – | – | 1 µM | – | – | – | –
9 | C=CCCCCCCCC/C=C/C1=CC(C)OC1=O (centres undefined) | Non-Toxic | – | – | Non-Toxic | > 30 µM | – | – | – | –
10 | C#CCCCCCCCCC/C=C1\C(=O)O[C@H](C)[C@H]1O | Non-Toxic | – | Dose-dependent effect | Non-Toxic | 12.8 µM | – | – | – | –
11 | C=C/C=C/CCCCCCCCC/C=C1/C(=O)O[C@H](C)[C@H]1O | Non-Toxic | Active | Dose-dependent effect | Non-Toxic | 5.8 µM | – | – | – | –
12 | CCCCCCCCCC/C=C/C1=CC(C)OC1=O (centres undefined) | Non-Toxic | – | – | Non-Toxic | > 30 µM | – | – | – | –
13 | C=CCCCCCCCCC/C=C1/C(=O)O[C@@H](C)[C@H]1O | Non-Toxic | – | – | Non-Toxic | 3 µM | – | – | – | –
14 | C#CCCCCCCCCC/C=C1/C(=O)O[C@H](C)[C@H]1O | Non-Toxic | Active | Dose-dependent effect | Non-Toxic | 6.2 µM | – | – | – | –
15 | C#CCCCCCCCC/C=C/[C@H]1C(=O)O[C@@H](C)[C@H]1O [LITSEALACTONE B] | Non-Toxic | – | – | Non-Toxic | > 30 µM | – | – | – | –
16 | C=CCCCCCCCCC/C=C1/C(=O)O[C@H](C)[C@H]1O | Non-Toxic | Active | Dose-dependent effect | Non-Toxic | 3.1 µM | Dose-dependent effect | Dose-dependent effect | Dose-dependent effect | Dose-dependent effect
17 | C=CCCCCCCCC/C=C/[C@H]1C(=O)O[C@H](C)[C@@H]1O | Non-Toxic | – | – | Non-Toxic | 14 µM | – | – | – | –
18 | C#CCCCCCCCC/C=C/C1=CC(C)OC1=O (centres undefined) | Non-Toxic | – | – | Non-Toxic | > 30 µM | – | – | – | –
19 | C=C/C=C/CCCCCCCC/C=C/C1=CC(C)OC1=O (centres undefined) | Non-Toxic | – | – | Non-Toxic | > 30 µM | – | – | – | –
